Data as given in patent publication US10323022B2, “Pyrrolidinyl urea, pyrrolidinyl thiourea and pyrrolidinyl guanidine compounds as TrkA kinase inhibitors” (Array BioPharma Inc., priority 2011, dated 2019).

target: TrkA (Homo sapiens (Human), UniProt P04629); test: TrkA Omnia Assay; assay type: biochemical; conditions: averaged IC50; 20 nM enzyme, 500 μM ATP, 10 μM peptide substrate
Procedure, shortened: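 Continuous fluorescent kinase read-out (ex 360 nm, em 485 nm) over 70 min, with initial rates fitted to 4- or 5-parameter logistic curves for IC50. Final conditions: 500 μM ATP, 10 μM Omnia Tyr Peptide #4, 20 nM TrkA, MOPS pH 7.5 buffer with MgCl2 and Triton X-100; enzyme and compound preincubated 10 min at ambient temperature.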

Chain of TrkA (P04629 33-796): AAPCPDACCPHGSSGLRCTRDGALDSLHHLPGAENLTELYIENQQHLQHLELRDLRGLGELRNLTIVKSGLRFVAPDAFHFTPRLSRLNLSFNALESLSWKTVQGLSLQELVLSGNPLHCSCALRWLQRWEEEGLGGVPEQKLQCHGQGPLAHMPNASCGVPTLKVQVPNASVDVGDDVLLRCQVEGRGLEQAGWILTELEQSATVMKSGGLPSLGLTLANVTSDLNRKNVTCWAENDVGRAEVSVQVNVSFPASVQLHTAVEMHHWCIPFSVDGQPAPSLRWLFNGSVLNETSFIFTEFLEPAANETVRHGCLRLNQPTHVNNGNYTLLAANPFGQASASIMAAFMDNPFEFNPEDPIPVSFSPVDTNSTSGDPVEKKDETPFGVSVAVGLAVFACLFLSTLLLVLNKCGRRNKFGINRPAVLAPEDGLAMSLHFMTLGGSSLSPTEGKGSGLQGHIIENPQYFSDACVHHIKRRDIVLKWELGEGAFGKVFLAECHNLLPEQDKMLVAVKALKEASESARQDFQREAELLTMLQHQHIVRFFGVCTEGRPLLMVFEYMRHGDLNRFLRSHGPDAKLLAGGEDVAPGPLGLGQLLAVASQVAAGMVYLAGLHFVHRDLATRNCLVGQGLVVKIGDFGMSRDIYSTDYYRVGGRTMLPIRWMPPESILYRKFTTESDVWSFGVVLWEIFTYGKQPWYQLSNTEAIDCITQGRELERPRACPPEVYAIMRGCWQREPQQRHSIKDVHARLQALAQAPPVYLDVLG

IC50 [nM]	Structure (SMILES)
100 to 1000	COCCN1C[C@@H](NC(=O)Nc2c(-c3ccccc3)nn(C(C)C)c2C)[C@H](c2ccc(F)c(F)c2)C1 [Example 641, 1-((3S,4R)-4-(3,4-difluorophenyl)-1-(2-methoxyethyl)pyrrolidin-3-yl)-3-(1-isopropyl-5-methyl-3-phenyl-1H-pyrazol-4-yl)urea]
100 to 1000	COCCN1C[C@@H](NC(=O)Nc2c(-c3ccccc3)nn(C(C)C)c2C)[C@H](c2cc(F)cc(F)c2)C1 [Example 642, 1-((3S,4R)-4-(3,5-difluorophenyl)-1-(2-methoxyethyl)pyrrolidin-3-yl)-3-(1-isopropyl-5-methyl-3-phenyl-1H-pyrazol-4-yl)urea]
< 100	COCCN1C[C@@H](NC(=O)Nc2c(-c3ccccc3)nn(CC(F)(F)F)c2C)[C@H](c2ccc(F)c(F)c2)C1 [Example 643, 1-((3S,4R)-4-(3,4-difluorophenyl)-1-(2-methoxyethyl)pyrrolidin-3-yl)-3-(5-methyl-3-phenyl-1-(2,2,2-trifluoroethyl)-1H-pyrazol-4-yl)urea]
< 100	CCn1nc(-c2ccccc2)c(NC(=O)N[C@@H]2CN(CCOC)C[C@H]2c2ccc(F)c(F)c2)c1C [Example 644, 1-((3S,4R)-4-(3,4-difluorophenyl)-1-(2-methoxyethyl)pyrrolidin-3-yl)-3-(1-ethyl-5-methyl-3-phenyl-1H-pyrazol-4-yl)urea]
< 100	CCn1nc(C)c(NC(=O)N[C@@H]2CN(CCOC)C[C@H]2c2ccc(F)c(F)c2)c1-c1ccccc1 [Example 645, 1-((3S,4R)-4-(3,4-difluorophenyl)-1-(2-methoxyethyl)pyrrolidin-3-yl)-3-(1-ethyl-3-methyl-5-phenyl-1H-pyrazol-4-yl)urea]
100 to 1000	COCCN1C[C@@H](NC(=O)Nc2c(C(F)(F)F)nn(C)c2-c2ccccc2)[C@H](c2ccc(F)c(F)c2)C1 [Example 646, 1-((3S,4R)-4-(3,4-difluorophenyl)-1-(2-methoxyethyl)pyrrolidin-3-yl)-3-(1-methyl-5-phenyl-3-(trifluoromethyl)-1H-pyrazol-4-yl)urea]
< 100	COCCN1C[C@@H](NC(=O)Nc2c(-c3ccccc3)nn(C)c2C(F)(F)F)[C@H](c2ccc(F)c(F)c2)C1 [Example 647, 1-((3S,4R)-4-(3,4-difluorophenyl)-1-(2-methoxyethyl)pyrrolidin-3-yl)-3-(1-methyl-3-phenyl-5-(trifluoromethyl)-1H-pyrazol-4-yl)urea]
< 100	COCCN1C[C@@H](NC(=O)Nc2cn(-c3ccccc3)nc2C)[C@H](c2ccc(F)c(F)c2)C1 [Example 648, 1-((3S,4R)-4-(3,4-difluorophenyl)-1-(2-methoxyethyl)pyrrolidin-3-yl)-3-(3-methyl-1-phenyl-1H-pyrazol-4-yl)urea]
100 to 1000	COCCN1C[C@@H](NC(=O)Nc2cn(-c3ccccc3)nc2C(F)(F)F)[C@H](c2ccc(F)c(F)c2)C1 [Example 649, 1-((3S,4R)-4-(3,4-difluorophenyvl)-1-(2-methoxyethyl)pyrrolidin-3-yl)-3-(1-phenyl-3-(trifluoromethyl)-1H-pyrazol-4-yl)urea]
